Source: ChEMBL document CHEMBL4130413, “1-Aryl-1H- and 2-aryl-2H-1,2,3-triazole derivatives blockade P2X7 receptor in vitro and inflammatory response in vivo” (Eur J Med Chem, 2017)

Legend:
[1] = biological target: T1, UDP-glucuronosyltransferase 1A1 (Homo sapiens, UniProt P22309); assay: Drug metabolism assessed as UGT1A1 (unknown origin)-mediated metabolite formation; type: ADME
T1 sequence (P22309 whole entry): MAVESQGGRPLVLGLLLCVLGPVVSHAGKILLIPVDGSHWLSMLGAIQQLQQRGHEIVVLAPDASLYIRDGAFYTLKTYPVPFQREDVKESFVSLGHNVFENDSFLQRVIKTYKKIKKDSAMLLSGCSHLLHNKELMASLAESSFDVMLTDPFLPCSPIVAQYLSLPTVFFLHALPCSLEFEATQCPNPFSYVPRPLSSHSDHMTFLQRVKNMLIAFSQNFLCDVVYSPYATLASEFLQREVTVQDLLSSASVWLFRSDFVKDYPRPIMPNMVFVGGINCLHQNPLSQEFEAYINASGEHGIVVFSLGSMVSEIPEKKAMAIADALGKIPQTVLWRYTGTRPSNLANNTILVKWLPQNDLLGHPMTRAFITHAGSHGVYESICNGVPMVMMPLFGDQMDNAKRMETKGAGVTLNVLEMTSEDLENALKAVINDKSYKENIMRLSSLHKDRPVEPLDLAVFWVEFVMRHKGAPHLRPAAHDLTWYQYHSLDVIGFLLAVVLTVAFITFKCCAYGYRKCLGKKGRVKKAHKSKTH

[2] = biological target: T2, UDP-glucuronosyltransferase 1A4 (Homo sapiens, UniProt P22310); assay: Drug metabolism assessed as UGT1A4 (unknown origin)-mediated metabolite formation; type: ADME
T2 sequence (P22310 whole entry): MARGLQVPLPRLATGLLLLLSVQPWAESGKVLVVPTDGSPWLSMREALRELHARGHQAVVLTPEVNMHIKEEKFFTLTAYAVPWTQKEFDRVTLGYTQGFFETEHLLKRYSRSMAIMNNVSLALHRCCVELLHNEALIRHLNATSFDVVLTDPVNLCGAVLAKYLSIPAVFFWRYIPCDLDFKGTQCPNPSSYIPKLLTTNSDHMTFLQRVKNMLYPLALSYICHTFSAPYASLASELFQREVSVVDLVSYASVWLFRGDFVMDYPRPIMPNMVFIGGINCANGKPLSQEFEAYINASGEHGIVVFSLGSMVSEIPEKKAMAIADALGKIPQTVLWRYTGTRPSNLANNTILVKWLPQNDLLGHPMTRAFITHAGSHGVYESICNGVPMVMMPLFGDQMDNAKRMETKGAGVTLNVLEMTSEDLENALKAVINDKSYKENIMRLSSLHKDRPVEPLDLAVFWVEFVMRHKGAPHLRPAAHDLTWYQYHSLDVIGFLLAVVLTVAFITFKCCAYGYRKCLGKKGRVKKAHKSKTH

[3] = biological target: T3, UDP-glucuronosyltransferase 1A6 (Homo sapiens, UniProt P19224); assay: Drug metabolism assessed as UGT1A6 (unknown origin)-mediated metabolite formation; type: ADME
T3 sequence (P19224 whole entry): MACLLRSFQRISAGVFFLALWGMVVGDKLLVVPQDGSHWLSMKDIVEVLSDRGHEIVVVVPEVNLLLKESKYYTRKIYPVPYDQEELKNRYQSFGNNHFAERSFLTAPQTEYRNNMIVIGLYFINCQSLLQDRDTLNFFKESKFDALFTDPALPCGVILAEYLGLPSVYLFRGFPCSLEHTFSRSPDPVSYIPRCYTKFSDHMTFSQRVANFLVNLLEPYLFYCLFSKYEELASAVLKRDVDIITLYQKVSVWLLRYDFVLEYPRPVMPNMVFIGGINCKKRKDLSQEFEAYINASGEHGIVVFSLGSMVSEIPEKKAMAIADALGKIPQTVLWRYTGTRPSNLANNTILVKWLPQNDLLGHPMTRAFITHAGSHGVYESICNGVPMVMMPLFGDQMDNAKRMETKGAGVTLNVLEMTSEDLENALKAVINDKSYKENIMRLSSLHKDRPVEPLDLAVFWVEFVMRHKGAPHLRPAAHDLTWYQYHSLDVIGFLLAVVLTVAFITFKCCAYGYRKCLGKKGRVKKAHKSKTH

[4] = biological target: T4, UDP-glucuronosyltransferase 1A8 (Homo sapiens, UniProt Q9HAW9); assay: Drug metabolism assessed as UGT1A8 (unknown origin)-mediated metabolite formation; type: ADME
T4 sequence (Q9HAW9 whole entry): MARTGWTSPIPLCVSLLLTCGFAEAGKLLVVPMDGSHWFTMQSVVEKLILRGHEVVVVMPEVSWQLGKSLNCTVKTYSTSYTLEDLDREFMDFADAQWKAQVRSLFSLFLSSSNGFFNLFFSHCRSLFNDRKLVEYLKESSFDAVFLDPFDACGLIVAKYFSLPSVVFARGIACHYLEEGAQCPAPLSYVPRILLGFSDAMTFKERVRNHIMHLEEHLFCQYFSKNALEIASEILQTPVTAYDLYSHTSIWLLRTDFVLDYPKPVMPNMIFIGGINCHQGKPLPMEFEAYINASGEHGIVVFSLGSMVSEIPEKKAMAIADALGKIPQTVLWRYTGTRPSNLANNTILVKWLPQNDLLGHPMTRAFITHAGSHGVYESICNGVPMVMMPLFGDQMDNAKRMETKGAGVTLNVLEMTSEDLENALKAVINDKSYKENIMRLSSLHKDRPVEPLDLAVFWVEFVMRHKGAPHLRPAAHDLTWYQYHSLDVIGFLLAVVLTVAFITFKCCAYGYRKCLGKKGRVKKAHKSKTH

[5] = biological target: T5, UDP-glucuronosyltransferase 2B15 (Homo sapiens, UniProt P54855); assay: Drug metabolism assessed as UGT2B15 (unknown origin)-mediated metabolite formation; type: ADME
T5 sequence (P54855 whole entry): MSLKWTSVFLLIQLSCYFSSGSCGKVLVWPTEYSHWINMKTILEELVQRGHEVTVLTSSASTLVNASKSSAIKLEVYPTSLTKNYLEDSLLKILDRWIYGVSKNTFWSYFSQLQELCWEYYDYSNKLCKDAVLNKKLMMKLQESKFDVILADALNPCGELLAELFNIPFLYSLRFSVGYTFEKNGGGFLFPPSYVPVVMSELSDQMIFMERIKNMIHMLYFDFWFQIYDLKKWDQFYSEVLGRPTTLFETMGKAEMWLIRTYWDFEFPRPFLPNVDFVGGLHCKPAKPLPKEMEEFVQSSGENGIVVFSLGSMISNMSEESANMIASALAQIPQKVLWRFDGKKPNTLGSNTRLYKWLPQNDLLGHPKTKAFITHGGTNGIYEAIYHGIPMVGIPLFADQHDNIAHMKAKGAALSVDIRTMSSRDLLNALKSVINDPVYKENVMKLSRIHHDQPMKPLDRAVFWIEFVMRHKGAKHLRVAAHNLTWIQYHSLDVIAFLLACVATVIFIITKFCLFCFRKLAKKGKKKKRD

Cytochrome P450 3A4 = Cytochrome P450 3A4 (Homo sapiens, UniProt P08684)
Sequence of Cytochrome P450 3A4 (P08684 whole entry): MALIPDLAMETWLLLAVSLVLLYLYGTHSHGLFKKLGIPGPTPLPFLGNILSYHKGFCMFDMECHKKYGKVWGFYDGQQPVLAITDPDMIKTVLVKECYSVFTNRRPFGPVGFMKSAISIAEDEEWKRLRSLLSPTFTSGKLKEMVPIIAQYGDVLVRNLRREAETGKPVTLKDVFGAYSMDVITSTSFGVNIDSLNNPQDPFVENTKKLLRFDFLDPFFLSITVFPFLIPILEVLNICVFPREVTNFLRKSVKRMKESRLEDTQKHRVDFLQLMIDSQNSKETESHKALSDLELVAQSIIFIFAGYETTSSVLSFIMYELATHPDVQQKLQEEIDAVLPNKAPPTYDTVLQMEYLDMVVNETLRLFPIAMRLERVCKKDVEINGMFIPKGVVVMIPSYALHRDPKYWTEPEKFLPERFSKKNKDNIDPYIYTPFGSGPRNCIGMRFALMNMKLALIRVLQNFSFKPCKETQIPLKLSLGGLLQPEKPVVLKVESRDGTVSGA
Description: Drug metabolism assessed as CYP3A4 (unknown origin)-mediated metabolite formation

| SMILES | Drug metabolism [1] | Drug metabolism [2] | Drug metabolism [3] | Drug metabolism [4] | Drug metabolism [5] | Drug metabolism (Cytochrome P450 3A4) |
| --- | --- | --- | --- | --- | --- | --- |
| CCOCc1cn(-c2ccc(Cl)cc2)nn1 | Metabolite_Notdetected | Metabolite_Detected | Metabolite_Notdetected | Metabolite_Notdetected | Metabolite_Notdetected | Metabolite_Notdetected |
| COc1ccc2cc([C@H](C)C(=O)O)ccc2c1 [NAPROXEN] | Metabolite_Detected | Metabolite_Notdetected | Metabolite_Detected | Metabolite_Notdetected | Metabolite_Notdetected |  |
| O=C(O)Cc1ccccc1Nc1c(Cl)cccc1Cl [DICLOFENAC] | Metabolite_Notdetected | Metabolite_Notdetected | Metabolite_Notdetected | Metabolite_Notdetected | Metabolite_Notdetected | Metabolite_Notdetected |
| CC(C)Cc1ccc(C(C)C(=O)O)cc1 (stereo not drawn) [IBUPROFEN] | Metabolite_Notdetected | Metabolite_Notdetected | Metabolite_Detected | Metabolite_Notdetected | Metabolite_Notdetected | Metabolite_Notdetected |
